Laboratory results from patent US20060079453A1, “Hla binding peptides and their uses” (priority 2002, published 2006).
Values joined by “and” are separate entries in the source; they are usually repeats but may differ in a detail not shown here. Equal entries are not always repeated. Where two headings read alike, the source gives them in different places. No end group written: not given here.

Experiments:
Assay in all cases: biochemical
H-2Dd = H-2Dd (Mus musculus, UniProt P01900); format: binding, murine
H-2 Db = H-2 Db (Mus musculus, UniProt P01899); format: binding, murine
HLA-B*0702 = HLA-B*0702 (Homo sapiens, UniProt P01889); format: binding
HLA-B*5401 = HLA-B*5401 (Homo sapiens, UniProt P01889, A329T/C349S/D138N/D201E/E176V/E187T/E204Q/E69G/I76V/K202T/L119W/R155S/R180L/S121T/S35A/S48A/V127L/V306I/V36M/Y140L); format: binding; conditions: B*5401 binding affinity (IC50)
HLA-B*5101 = HLA-B*5101 (Homo sapiens, UniProt P01889, A329T/A93T/A95T/C349S/D138N/D201E/D98Y/E187L/E204Q/E69T/G107R/I218V/K202T/L105A/L119W/N104I/Q94N/R106L/R155S/R180L/S101N/S121T/S35A/S48A/V306I/V36M/Y195H/Y91F); conditions: B*5101 binding affinity (IC50)
HLA-B*3501 = HLA-B*3501 (Homo sapiens, UniProt P01889, A329T/A93T/A95T/C349S/D201E/D98Y/E176V/E187L/E204Q/E69T/I218V/K202T/L119I/Q94N/R155S/R180L/S121R/S35A/S48A/T118I/V127L/V306I/V36M/Y140S/Y91F); conditions: B*3501 binding affinity (IC50)
[1] = target: HLA-DQ DQA1*0301/B*0301 (DQ7) (Homo sapiens, UniProt P01909+P01920, A209T/C70Q/DUP78-78/E183D/F237L/G63E/I129T/K197E/L178F/L74F/L98V/Q57E/Q76R/S185I/S97I/T49S/V73L); format: binding; conditions: read-out: DQB1*0301
HLA-DR DRB3*0101 (DR52) = HLA-DR DRB3*0101 (DR52) (Homo sapiens, UniProt P01903+P79483); format: binding; conditions: read-out: DRB3 *0101
HLA-DR DRB1*0701 (DR7) = HLA-DR DRB1*0701 (DR7) (Homo sapiens, UniProt P01903+P01911, A100R/A102G/A103Q/D57E/D86V/E43K/F76Y/K127E/L162R/M171V/P40G/Q125H/Q99D/R33Q/R42Y/R54Q/S133A/S66F/T210M/V115G/Y107V/Y59L/Y89S); format: binding; conditions: read-out: DRB1 *0701
HLA-DR DRB1*1101 (DR11) = HLA-DR DRB1*1101 (DR11) (Homo sapiens, UniProt P01903+P01911, A100R/A169T/A87E/I96F/K41T/L162R/M171V/P40S/Q125H/Q178H/Q39Y/Q99D/R42S/S66Y/T262R/V115G/W38E); format: binding; conditions: read-out: DRB1 *1101
HLA-DR DRB5*0101 (DR51) = HLA-DR DRB5*0101 (DR51) (Homo sapiens, UniProt P01903+Q30154); format: binding; conditions: read-out: DRB5 *0101
HLA-DR DRB4*0101 (DR53) = HLA-DR DRB4*0101 (DR53) (Homo sapiens, UniProt P01903+P13762, G164S); format: binding; conditions: read-out: DRB4 *0101
HLA-DR DRB1*1501 (DR15) = HLA-DR DRB1*1501 (DR15) (Homo sapiens, UniProt P01903+P01911); format: binding; conditions: read-out: DRBI *1501

H-2Dd, sequence (P01900 25-365): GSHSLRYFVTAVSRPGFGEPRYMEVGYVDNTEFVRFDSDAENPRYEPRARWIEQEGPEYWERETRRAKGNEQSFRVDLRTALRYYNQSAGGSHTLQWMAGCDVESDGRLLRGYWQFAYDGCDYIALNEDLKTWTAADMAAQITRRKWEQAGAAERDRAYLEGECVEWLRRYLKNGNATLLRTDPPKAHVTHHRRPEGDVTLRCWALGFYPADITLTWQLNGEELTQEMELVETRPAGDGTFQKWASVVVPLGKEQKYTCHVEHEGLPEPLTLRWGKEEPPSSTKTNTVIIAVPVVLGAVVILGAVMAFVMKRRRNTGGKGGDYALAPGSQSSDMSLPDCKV
H-2Dd, sequence (P61769 21-119, further chain): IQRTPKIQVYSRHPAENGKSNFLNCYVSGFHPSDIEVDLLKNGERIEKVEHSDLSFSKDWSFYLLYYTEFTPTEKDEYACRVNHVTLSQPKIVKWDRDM
H-2 Db, sequence (P61769 21-119): as the sequence (P61769 21-119, further chain) above
H-2 Db, sequence (P01899 25-362): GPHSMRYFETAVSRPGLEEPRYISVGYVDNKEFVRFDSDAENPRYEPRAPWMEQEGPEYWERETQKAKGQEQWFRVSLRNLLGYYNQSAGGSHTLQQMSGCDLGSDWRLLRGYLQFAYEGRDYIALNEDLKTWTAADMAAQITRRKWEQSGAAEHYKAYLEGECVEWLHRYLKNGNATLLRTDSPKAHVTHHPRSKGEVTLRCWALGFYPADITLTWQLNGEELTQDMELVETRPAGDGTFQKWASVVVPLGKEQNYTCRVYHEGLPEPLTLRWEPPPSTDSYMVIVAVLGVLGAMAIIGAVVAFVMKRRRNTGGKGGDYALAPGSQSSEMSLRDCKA
HLA-DR DRB1*1101 (DR11), sequence (P01903 26-254 limits assumed, other chains not shown): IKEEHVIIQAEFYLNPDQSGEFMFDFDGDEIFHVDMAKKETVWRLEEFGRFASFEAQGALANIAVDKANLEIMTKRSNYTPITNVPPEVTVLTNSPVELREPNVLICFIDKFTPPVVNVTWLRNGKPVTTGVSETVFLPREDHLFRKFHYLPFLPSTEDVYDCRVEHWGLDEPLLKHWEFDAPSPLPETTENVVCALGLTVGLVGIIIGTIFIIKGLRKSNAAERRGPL

Q: How did the IC50 (H-2Dd) turn out when RGPGRAYVTI was run?
A: 14 nM

Q: RGPGRYFVTI was tested. Which IC50 (H-2Dd) did it give?
A: 2.7 nM

Q: For RGPYKAFVTI, which IC50 (H-2Dd) is on record?
A: 13 nM

Q: For RGPYRAAVTI, which IC50 (H-2Dd) is on record?
A: 2 nM

Q: How did the IC50 (H-2Dd) turn out when RGPYRAFATI was run?
A: 2.1 nM

Q: RGPYRAFKTI was tested. Which IC50 (H-2Dd) did it give?
A: 2.3 nM

Q: With RGPYRAFVAI as the sequence, how does the IC50 (H-2Dd) read?
A: 1.3 nM

Q: For RGPYRAFVKI, which IC50 (H-2Dd) is on record?
A: 3.9 nM

Q: For RGPYRAFVTK, which IC50 (H-2Dd) is on record?
A: 91 nM

Q: RGPYRAYVTI was tested. Which IC50 (H-2Dd) did it give?
A: 2.1 nM

Q: RGPYRKFVTI was tested. Which IC50 (H-2Dd) did it give?
A: 3.6 nM

Q: RLIQNFLTI was tested. Which IC50 (H-2 Db; Db) did it give?
A: 40 nM

Q: RMIQNSLTI was tested. Which IC50 (H-2 Db; Db) did it give?
A: 4.6 nM

Q: RNPRFYNL was tested. Which IC50 (H-2 Db; Db) did it give?
A: > 44000 nM

Q: For RPGPGPGAV, which IC50 (HLA-B*0702; B*0702 binding affinity (IC50)) is on record?
A: 23 nM

Q: How did the IC50 (HLA-B*5401) turn out when RPQVPLRPMTI was run?
A: > 15100 nM

Q: And the IC50 (HLA-B*5101)?
A: 8080 nM

Q: And the IC50 (HLA-B*3501)?
A: > 19000 nM and 10500 nM

Q: RPRFGPGPGEF was tested. Which IC50 (HLA-B*0702; B*0702 binding affinity (IC50)) did it give?
A: 14 nM

Q: Which IC50 (HLA-B*0702; B*0702 binding affinity (IC50)) does the source give for RPRFRGPGPGF here?
A: 9.7 nM

Q: Which IC50 (HLA-B*0702; B*0702 binding affinity (IC50)) does the source give for RPRGPGPGV here?
A: 11 nM

Q: For SDSNYYDLLKDLEEG, which IC50 [1] is on record?
A: > 89300 nM

Q: Which IC50 (H-2 Db; Db) does the source give for SFYRNLLWL here?
A: 46 nM and 304 nM

Q: SGVENPGGYCL was tested. Which IC50 (H-2 Db; Db) did it give?
A: 60 nM

Q: With SGVENPGGYCM as the sequence, how does the IC50 (H-2 Db; Db) read?
A: 128 nM

Q: How did the IC50 (H-2 Db; Db) turn out when SHYAFSPM was run?
A: > 88000 nM

Q: SQVMNLHNL was tested. Which IC50 (H-2 Db; Db) did it give?
A: 2.3 nM

Q: For SSMHNALHI, which IC50 (H-2 Db; Db) is on record?
A: 7.6 nM

Q: With STGWNRTIVENLLAN as the sequence, how does the IC50 [1] read?
A: 47100 nM

Q: Which IC50 (H-2 Db; read-out: Db) does the source give for TALANTIEV here?
A: 16 nM

Q: How did the IC50 (H-2 Db; read-out: Db) turn out when TALANTIEY was run?
A: 3.7 nM

Q: TGICNQNII was tested. Which IC50 (H-2 Db; read-out: Db) did it give?
A: 21 nM

Q: For TGIGNQNII, which IC50 (H-2 Db; read-out: Db) is on record?
A: 13 nM

Q: How did the IC50 (HLA-B*0702; B*0702 binding affinity (IC50)) turn out when VPGPGPGL was run?
A: 1520 nM

Q: Which IC50 (H-2Dd) does the source give for WGPSLYSI here?
A: 17 nM

Q: For WGPSLYSIL, which IC50 (H-2Dd) is on record?
A: 6.6 nM

Q: XVXDNATEY was tested. Which IC50 (HLA-B*0702; read-out: B*0702 binding affinity (IC50)) did it give?
A: > 55000 nM

Q: How did the IC50 (HLA-DR DRB3*0101 (DR52)) turn out when YAAFAAAKTAAAFA was run?
A: 33300 nM

Q: What about the IC50 (HLA-DR DRB1*0701 (DR7)) of the same sequence?
A: 34 nM

Q: And the IC50 (HLA-DR DRB1*1101 (DR11))?
A: 2.6 nM

Q: And the IC50 (HLA-DR DRB5*0101 (DR51))?
A: 9.5 nM

Q: What about the IC50 (HLA-DR DRB4*0101 (DR53)) of the same sequence?
A: 30 nM

Q: What about the IC50 [1] of the same sequence?
A: 36 nM and 39 nM

Q: What about the IC50 (HLA-DR DRB1*1501 (DR15)) of the same sequence?
A: > 4350 nM

Q: Which IC50 (H-2 Db; Db) does the source give for YMRVNGKWM here?
A: 50 nM

Q: How did the IC50 (HLA-B*0702; B*0702 binding affinity (IC50)) turn out when YPLTFGWCI was run?
A: 54300 nM

Q: And the IC50 (HLA-B*5401)?
A: 79 nM
